Earlier results on 8 molecules are cited in article PMC11923824, “Spider-derived peptide LCTx-F2 suppresses ASIC channels by occupying the acidic pocket” (The Journal of Biological Chemistry, 2025).

The subject of one data set is hASIC1a channel. The conditions noted are these: interacts with helix α5 of the thumb domain.
The test system of the next data set is ischemic stroke. From the text: (§1) ASIC channels, particularly ASIC1a and ASIC3, are affected by certain cations like Ca^2+ and Zn^2+, which provides valuable insights for the development of novel drugs targeting ASICs. […] Depletion of insulin leads to an increase in ASIC1a channel expression in Chinese hamster ovary cells and neurons.
The subject of a further data set is ASIC1a channel. From the text: ASIC channels, particularly ASIC1a and ASIC3, are affected by certain cations like Ca^2+ and Zn^2+, which provides valuable insights for the development of novel drugs targeting ASICs. […] Depletion of insulin leads to an increase in ASIC1a channel expression in Chinese hamster ovary cells and neurons. […] Spider venom contains a variety of peptide toxins, some of which induce pain by targeting different ion channels ([29], [30], [31]), whereas others have analgesic properties and block the pain pathway ([32], [33], [34]). […] Derived from the spider Lycosa singoriensis, LCTx-F2 enhances ...

Another data set has as its system rASIC2a channel. An excerpt: Venom serves as a crucial weapon for animals in hunting prey and defending against enemies. Spider venom contains a variety of peptide toxins, some of which induce pain by targeting different ion channels ([29], [30], [31]), whereas others have analgesic properties and block the pain pathway ([32], [33], [34]). […] Derived from the spider Lycosa singoriensis, LCTx-F2 enhances ...

The subject of the next data set is ASIC3 channel. The following applies: nonproton ligand.
Description: as §1

For the next data set, the system named is ASICs. The following applies: no reference given.
Description: as §1

The test system of another data set is neuron. The following applies: no reference given.
Description: as §1

For a further data set, the system named is humans. The following applies: no reference given.
Description: as §1

A further data set addresses T1, rASIC3 channel (Rattus norvegicus, UniProt O35240).
T1 construct: expressed in transfected cells; host or cells: human embryonic kidney 293 cells
T1 sequence (O35240 1-533): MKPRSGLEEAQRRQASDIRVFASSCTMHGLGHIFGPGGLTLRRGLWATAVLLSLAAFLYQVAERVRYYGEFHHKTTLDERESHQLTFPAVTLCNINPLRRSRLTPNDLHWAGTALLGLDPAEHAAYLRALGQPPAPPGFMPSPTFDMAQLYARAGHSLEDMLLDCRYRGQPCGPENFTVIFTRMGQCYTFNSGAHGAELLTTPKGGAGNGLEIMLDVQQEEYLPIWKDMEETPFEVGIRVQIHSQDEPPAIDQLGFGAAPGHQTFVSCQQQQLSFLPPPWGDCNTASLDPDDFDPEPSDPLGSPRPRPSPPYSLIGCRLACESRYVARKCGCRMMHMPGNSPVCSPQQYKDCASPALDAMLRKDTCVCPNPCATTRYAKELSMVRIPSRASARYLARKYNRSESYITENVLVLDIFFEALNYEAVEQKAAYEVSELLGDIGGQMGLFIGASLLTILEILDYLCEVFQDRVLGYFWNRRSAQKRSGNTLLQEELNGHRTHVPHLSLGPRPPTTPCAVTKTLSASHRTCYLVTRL
An excerpt: Venom serves as a crucial weapon for animals in hunting prey and defending against enemies. Spider venom contains a variety of peptide toxins, some of which induce pain by targeting different ion channels ([29], [30], [31]), whereas others have analgesic properties and block the pain pathway ([32], [33], [34]). […] Derived from the spider Lycosa singoriensis, LCTx-F2 enhances ... || ASICs play a crucial role in pain perception among mammals ([39], [40]). Some animal toxins that are involved in prey capture and defense mechanisms act on ASICs ([26], [41]). For instance, the venom from Micrurus tener tener causes intense and persistent pain by enhancing the activation of ASICs through the MitTx toxin ([27]). ASICs are also considered important targets for pain relief, and certain chemicals that block their activity have shown strong analgesic effects in tests with living organisms ([42], [43]).

A further data set concerns human ASIC3 channel. From the text: ASICs play a crucial role in pain perception among mammals ([39], [40]). Some animal toxins that are involved in prey capture and defense mechanisms act on ASICs ([26], [41]). For instance, the venom from Micrurus tener tener causes intense and persistent pain by enhancing the activation of ASICs through the MitTx toxin ([27]). ASICs are also considered important targets for pain relief, and certain chemicals that block their activity have shown strong analgesic effects in tests with living organisms ([42], [43]).

For data set [1], the system named is ASICs in dorsal root ganglion neurons. The following applies: no reference given.
Description: as §1

For data set [2], the system named is ASIC1a channel in Xenopus oocytes. The conditions noted are these: no reference given.
Description: as §1

For “mambalgin-1: snake toxin mambalgin-1 (LKCYQHGKVVTCHRDMKFCYHNTGMPFRNLKLILQGCSSSCSETENNKCCSTDRCNK; UniProt P0DKR6 22-78, looked up)”, the “effect on proton sensitivity of hASIC1a” value with hASIC1a channel is recorded as “reduces the proton sensitivity”.
With PcTx1, the “neuroprotection in ischemic stroke” value in the data set with ischemic stroke was “exhibits neuroprotection”. Further, in the data set with ASIC1a channel, the “effect on ASIC1a (in words)” value is on record as “selectively inhibit the ASIC1a channel” and the “site of action on ASIC1a” value is recorded as “inserts into the acidic pocket of ASIC1a channels”. The “effect on rASIC2a (in words)” value in the data set on rASIC2a channel is “not the rASIC2a or rASIC3 channels”.
Regarding `Cc1nc(NC(=N)N)nc2ccccc12` [2-guanidine-4-methylquinazoline], the “activation of ASIC3” value with ASIC3 channel is given as “activated”.
As for `N=C(N)NC(=O)c1nc(Cl)c(N)nc1N` [Amiloride], in the data set on ASICs, the “effect on ASICs, amiloride” value is recorded as “can suppress most ASICs”. Moreover, the “protection against acidosis-induced neuron damage” value in the data set with neuron was “provides protection against acidosis-induced neuron damage”. The “analgesic effect in humans” value in the data set on humans is on record as “has shown analgesic effects in humans”.
For the molecule APETx2, the “effect on rASIC3 (in words)” value on rASIC3 channel was “inhibit both rASIC3 and hASIC3 channels”. Also, in the data set with human ASIC3 channel, the “inhibition of hASIC3 (in words)” value was “inhibit both rASIC3 and hASIC3 channels”. In the data set with human ASIC3 channel (read-out: IC50 against human ASIC3 channel), the 50% inhibitory concentration (IC50) (in general, the concentration that gives 50% inhibition) was 0.175 µM.
Turning to “bradykinin: proinflammatory mediator (RPPGFSPFR; Bradykinin; UniProt P01042 381-389, looked up)”, the “effect on ASIC expression” value in data set [1] is given as “increase the expression of ASICs”.
In the case of “nerve growth factor: proinflammatory mediator”, the “effect on ASIC expression” value in data set [1] is on record as “increase the expression of ASICs”.

B1: matriptase: protease cleaving ASIC1a (protein, UniProt Q9Y5Y6 1-855, looked up)
Suppressor of tumorigenicity …: MGSDRARKGGGGPKDFGAGLKYNSRHEKVNGLEEGVEFLPVNNVKKVEKHGPGRWVVLAAVLIGLLLVLLGIGFLVWHLQYRDVRVQKVFNGYMRITNENFVDAYENSNSTEFVSLASKVKDALKLLYSGVPFLGPYHKESAVTAFSEGSVIAYYWSEFSIPQHLVEEAERVMAEERVVMLPPRARSLKSFVVTSVVAFPTDSKTVQRTQDNSCSFGLHARGVELMRFTTPGFPDSPYPAHARCQWALRGDADSVLSLTFRSFDLASCDERGSDLVTVYNTLSPMEPHALVQLCGTYPPSYNLTFHSSQNVLLITLITNTERRHPGFEATFFQLPRMSSCGGRLRKAQGTFNSPYYPGHYPPNIDCTWNIEVPNNQHVKVRFKFFYLLEPGVPAGTCPKDYVEINGEKYCGERSQFVVTSNSNKITVRFHSDQSYTDTGFLAEYLSYDSSDPCPGQFTCRTGRCIRKELRCDGWADCTDHSDELNCSCDAGHQFTCKNKFCKPLFWVCDSVNDCGDNSDEQGCSCPAQTFRCSNGKCLSKSQQCNGKDDCGDGSDEASCPKVNVVTCTKHTYRCLNGLCLSKGNPECDGKEDCSDGSDEKDCDCGLRSFTRQARVVGGTDADEGEWPWQVSLHALGQGHICGASLISPNWLVSAAHCYIDDRGFRYSDPTQWTAFLGLHDQSQRSAPGVQERRLKRIISHPFFNDFTFDYDIALLELEKPAEYSSMVRPICLPDASHVFPAGKAIWVTGWGHTQYGGTGALILQKGEIRVINQTTCENLLPQQITPRMMCVGFLSGGVDSCQGDSGGPLSSVEADGRIFQAGVVSWGDGCAQRNKPGVYTRLPLFRDWIKENTGV
For B1, the “effect of cleavage on ASIC1a current” value in data set [2] is listed as “reduces its current”.
